Laboratory results as given in PMC7570662, “In Vivo Pharmacokinetic Analysis Utilizing Non-Targeted and Targeted Mass Spectrometry and In Vitro Assay against Transient Receptor Potential Channels of Maobushisaishinto and Its Constituent Asiasari Radix” (Molecules, 2020).

Columns and labels:
human TRPV1 = target: T1, human TRPV1 (Homo sapiens, UniProt Q8NER1); assay: Ca2+ influx assay in TRPV1-expressing T-REx-293 cells; format: cell-based; details: 10 µmol/L test compound, relative to 2 µmol/L capsaicin; for activation at 10 µM: T-REx-293, read-out: % of Activation Compared to Positive Control against Each Subfamily of TRP Channel TRPV1
T1 construct: Each full-length human TRPA1, TRPV1, TRPV4, and TRPM8 coding regions were introduced into a pcDNA4/TO vector; expressed in transfected cells; host or cells: T-REx-293 cells (tetracycline-induced, pcDNA4/TO vector)
Protocol: (§1) Each full-length human TRPA1, TRPV1, TRPV4, and TRPM8 coding regions were introduced into a pcDNA4/TO vector (Thermo Fisher Scientific, Waltham, MA, USA) and transfected into T-REx-293 cells (Thermo Fisher Scientific) to obtain stable cell lines expressing human TRPA1, TRPV1, TRPV4, and TRPM8. Cells were cultured in DMEM with 10% FBS, 4 mmol/L L-glutamine, and penicillin/streptomycin.
(§2) Cells were suspended in medium with 1 µg/mL tetracycline and seeded in poly-D-lysine coated 96-well plate at 2.5 × 10^4 cells/well. After overnight culture, the cells were used for Ca^2+ influx assay.
(§3) The Ca^2+ influx assay was performed using a FLIPR Calcium 5 Assay Kit (Molecular Devices, Sunnyvale, CA, USA) according to previously reported methods with minor modifications. In brief, cells were incubated with 80 µL Ca^2+-chelating dye dissolved in assay buffer at pH 7.4 (Hanks’ Balanced Salt Solution containing 20 mmol/L of N-2-hydroxyethylpiperazine-N’-2-ethanesulfonic acid) at room temperature for 30 min. The plates were assayed using a FlexStation 3 Microplate Reader (Molecular Devices). The fluorescence intensity was traced entirely for 80 s. The baseline of fluorescence was measured for 20 s before adding 20 µL of test compound (final concentration, 10 µmol/L). The response was expressed as percentage activation using the relative fluorescence units (RFU) (% activation = 100 × ((RFUmax − RFUbaseline)/RFUbaseline) − 100). Furthermore, the activities of each test compound against several subfamilies of TRP channels were represented as the relative enhancement of Ca^2+ influx of each positive control, indicated as follows: 20 µmol/L of allyl isothiocyanate (an agonist of TRPA1), 2 µmol/L of capsaicin (an agonist of TRPV1), 4 µmol/L of GSK1016790A (an agonist of TRPV4), and 20 µmol/L of icilin (an agonist of TRPM8). The dose–response curve was fitted to the sigmoidal dose-response equation (top, the max response of each compound), and EC50 values were calculated using GraphPad Prism 7 software (GraphPad, San Diego, CA, USA).

human TRPV4 = target: T2, human TRPV4 (Homo sapiens, UniProt Q9HBA0); assay: Ca2+ influx assay in TRPV4-expressing T-REx-293 cells; format: cell-based; details: 10 µmol/L test compound, relative to 4 µmol/L GSK1016790A; for activation at 10 µM: T-REx-293, read-out: % of Activation Compared to Positive Control against Each Subfamily of TRP Channel TRPV4
T2 construct: Each full-length human TRPA1, TRPV1, TRPV4, and TRPM8 coding regions were introduced into a pcDNA4/TO vector; expressed in transfected cells; host or cells: T-REx-293 cells (tetracycline-induced, pcDNA4/TO vector)
Protocol: as §1, §2, §3

human TRPA1 = target: T3, human TRPA1 (Homo sapiens, UniProt O75762); assay: Ca2+ influx assay in TRPA1-expressing T-REx-293 cells; format: cell-based; details: 10 µmol/L test compound, relative to 20 µmol/L allyl isothiocyanate; for activation at 10 µM: T-REx-293, read-out: % of Activation Compared to Positive Control against Each Subfamily of TRP Channel TRPA1
T3 construct: Each full-length human TRPA1, TRPV1, TRPV4, and TRPM8 coding regions were introduced into a pcDNA4/TO vector; expressed in transfected cells; host or cells: T-REx-293 cells (tetracycline-induced, pcDNA4/TO vector)
Protocol: as §1, §2, §3

human TRPM8 = target: T4, human TRPM8 (Homo sapiens, UniProt Q7Z2W7); assay: Ca2+ influx assay in TRPM8-expressing T-REx-293 cells; format: cell-based; details: 10 µmol/L test compound, relative to 20 µmol/L icilin; for activation at 10 µM: T-REx-293, read-out: % of Activation Compared to Positive Control against Each Subfamily of TRP Channel TRPM8
T4 construct: Each full-length human TRPA1, TRPV1, TRPV4, and TRPM8 coding regions were introduced into a pcDNA4/TO vector; expressed in transfected cells; host or cells: T-REx-293 cells (tetracycline-induced, pcDNA4/TO vector)
Protocol: as §1, §2, §3

[1] = Qualitative non-targeted LC-HRMS analysis of AR compounds in rat plasma after oral AR or MBST; format: in vivo; details: for AR-Treated Rat Plasma (detection of compound): rat plasma 1 h after oral 2 g/kg AR, n = 1, LC-HRMS
Protocol: Extract powders of AR or MBST were suspended in distilled water and orally administered to rats having fasted for approximately 16 h. The dose of AR was set at 2 g/kg, and the MBST doses were set at 1 and 2 g/kg. 1 g/kg MBST contained 578 µg/kg, 147 µg/kg, 226 µg/kg, 426 µg/kg asarinin, sesamin, methyl kakuol, and amide A, respectively. The doses were chosen based on a previous pharmacological study of MBST using rats.
According to previous pharmacokinetic studies of herbal medicines, many of the components were quickly absorbed into the bloodstream, thereby providing the rationale for a sampling time at 1 h. Blood was centrifuged at 1200× g at 4 °C for 30 min to obtain plasma; then, the sample was stored at −80 °C until LC-HRMS analysis. […]
The plasma samples were collected at 1 h after MBST administration in case of both the qualitative (non-targeted) analysis and the quantitative (targeted) analysis.
The plasma samples of AR- or MBST-treated rats collected at 1 h post-administration were pretreated by deproteinization using methanol before the LC-HRMS analysis as follows: 100 µL plasma sample was mixed with 500 µL methanol, and the resultant solution was vortexed for 2 min. The mixture was centrifuged at 7000× g at 4 °C for 5 min. The supernatant was dried using a centrifugal evaporator, and the dried residue was dissolved in 100 μL of the initial LC mobile phase which is composed of 0.1 vol% formic acid in water/acetonitrile (99.9/0.1, v/v) and recentrifuged at 7000× g at 4 °C for 5 min. Finally, a 5 μL aliquot of the supernatant was injected into the LC-HRMS system comprised of an Acquity Ultra-Performance Liquid Chromatography System (Waters, Milford, MA, USA) and a Xevo G2-XS quadrupole time-of-flight MS (Waters) and was chromatographically separated using an ACQUITY UPLC HSS T3 column (2.1 × 150 mm I.D., 1.8-μm particle size; Waters) with an ACQUITY UPLC HSS T3 VanGuard Pre-column (2.1 mm × 5 mm I.D., 1.8-μm particle size; Waters) at 40 °C. The mobile phase consisted of solution A (0.1% formic acid, v/v) and solution B (acetonitrile) with a gradient of solution B (0.1%, 0 min; 99%, 24 min; v/v) at a flow rate of 0.4 mL/min. The analysis of the mass spectrometer fit with an electrospray ionization probe with sensitivity mode was performed for both the positive and negative ion mode. The resolution of the mass spectrometer was set at >20,000. For MS^E experiments, two acquisition functions with different collision energies were created: a low-energy function with a collision energy of 6 eV and a high-energy function with collision energy ranging from 15 to 40 eV.

T1 sequence (Q8NER1 whole entry): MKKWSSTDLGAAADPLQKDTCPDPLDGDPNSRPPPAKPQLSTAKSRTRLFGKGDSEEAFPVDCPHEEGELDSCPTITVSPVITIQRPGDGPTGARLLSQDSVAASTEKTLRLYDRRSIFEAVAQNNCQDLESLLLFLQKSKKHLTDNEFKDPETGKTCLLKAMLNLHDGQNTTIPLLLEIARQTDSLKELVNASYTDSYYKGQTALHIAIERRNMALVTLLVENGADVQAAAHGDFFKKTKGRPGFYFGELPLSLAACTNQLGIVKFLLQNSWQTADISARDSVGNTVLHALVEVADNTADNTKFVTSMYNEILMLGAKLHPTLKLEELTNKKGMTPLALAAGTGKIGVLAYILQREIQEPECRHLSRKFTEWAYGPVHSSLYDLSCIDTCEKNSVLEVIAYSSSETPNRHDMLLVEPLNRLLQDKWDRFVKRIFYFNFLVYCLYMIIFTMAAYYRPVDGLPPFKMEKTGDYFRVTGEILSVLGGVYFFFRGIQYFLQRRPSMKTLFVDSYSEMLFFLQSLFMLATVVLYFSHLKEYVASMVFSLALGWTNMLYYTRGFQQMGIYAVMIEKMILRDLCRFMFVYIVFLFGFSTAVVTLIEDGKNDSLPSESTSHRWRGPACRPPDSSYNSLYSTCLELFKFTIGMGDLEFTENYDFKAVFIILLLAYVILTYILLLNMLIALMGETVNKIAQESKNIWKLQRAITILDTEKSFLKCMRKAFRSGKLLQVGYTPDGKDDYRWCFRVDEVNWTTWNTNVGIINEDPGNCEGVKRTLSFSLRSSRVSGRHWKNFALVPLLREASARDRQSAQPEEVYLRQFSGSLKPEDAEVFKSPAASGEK
T3 sequence (O75762 whole entry): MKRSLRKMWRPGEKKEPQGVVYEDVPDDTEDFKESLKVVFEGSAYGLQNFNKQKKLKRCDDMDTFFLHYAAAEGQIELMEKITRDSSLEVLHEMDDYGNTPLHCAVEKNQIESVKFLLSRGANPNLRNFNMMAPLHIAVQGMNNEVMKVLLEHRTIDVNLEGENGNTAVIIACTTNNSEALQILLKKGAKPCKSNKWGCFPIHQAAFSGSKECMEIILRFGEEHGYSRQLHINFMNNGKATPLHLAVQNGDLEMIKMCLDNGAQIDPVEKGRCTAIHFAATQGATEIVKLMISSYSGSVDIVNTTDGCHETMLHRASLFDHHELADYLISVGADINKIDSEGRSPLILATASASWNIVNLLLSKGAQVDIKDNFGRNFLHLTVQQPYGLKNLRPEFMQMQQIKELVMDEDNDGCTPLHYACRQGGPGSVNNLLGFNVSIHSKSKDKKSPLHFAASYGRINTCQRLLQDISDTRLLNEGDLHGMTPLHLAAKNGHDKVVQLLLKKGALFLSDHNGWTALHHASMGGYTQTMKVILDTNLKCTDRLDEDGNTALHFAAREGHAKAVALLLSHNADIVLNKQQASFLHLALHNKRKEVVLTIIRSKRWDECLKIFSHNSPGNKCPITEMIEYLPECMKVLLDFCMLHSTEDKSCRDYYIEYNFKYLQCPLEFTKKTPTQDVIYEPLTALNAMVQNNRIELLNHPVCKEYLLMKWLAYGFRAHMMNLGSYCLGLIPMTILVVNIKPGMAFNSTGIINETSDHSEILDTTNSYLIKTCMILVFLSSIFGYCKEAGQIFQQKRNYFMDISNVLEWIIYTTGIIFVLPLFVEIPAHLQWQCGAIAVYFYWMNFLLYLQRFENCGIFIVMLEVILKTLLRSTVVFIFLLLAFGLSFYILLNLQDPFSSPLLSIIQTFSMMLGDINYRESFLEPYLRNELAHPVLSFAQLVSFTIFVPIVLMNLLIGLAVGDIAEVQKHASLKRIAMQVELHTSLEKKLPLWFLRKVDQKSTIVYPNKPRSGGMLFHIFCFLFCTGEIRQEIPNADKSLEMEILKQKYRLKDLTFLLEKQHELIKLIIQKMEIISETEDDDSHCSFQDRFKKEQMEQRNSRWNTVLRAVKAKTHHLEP
T4 sequence (Q7Z2W7 whole entry): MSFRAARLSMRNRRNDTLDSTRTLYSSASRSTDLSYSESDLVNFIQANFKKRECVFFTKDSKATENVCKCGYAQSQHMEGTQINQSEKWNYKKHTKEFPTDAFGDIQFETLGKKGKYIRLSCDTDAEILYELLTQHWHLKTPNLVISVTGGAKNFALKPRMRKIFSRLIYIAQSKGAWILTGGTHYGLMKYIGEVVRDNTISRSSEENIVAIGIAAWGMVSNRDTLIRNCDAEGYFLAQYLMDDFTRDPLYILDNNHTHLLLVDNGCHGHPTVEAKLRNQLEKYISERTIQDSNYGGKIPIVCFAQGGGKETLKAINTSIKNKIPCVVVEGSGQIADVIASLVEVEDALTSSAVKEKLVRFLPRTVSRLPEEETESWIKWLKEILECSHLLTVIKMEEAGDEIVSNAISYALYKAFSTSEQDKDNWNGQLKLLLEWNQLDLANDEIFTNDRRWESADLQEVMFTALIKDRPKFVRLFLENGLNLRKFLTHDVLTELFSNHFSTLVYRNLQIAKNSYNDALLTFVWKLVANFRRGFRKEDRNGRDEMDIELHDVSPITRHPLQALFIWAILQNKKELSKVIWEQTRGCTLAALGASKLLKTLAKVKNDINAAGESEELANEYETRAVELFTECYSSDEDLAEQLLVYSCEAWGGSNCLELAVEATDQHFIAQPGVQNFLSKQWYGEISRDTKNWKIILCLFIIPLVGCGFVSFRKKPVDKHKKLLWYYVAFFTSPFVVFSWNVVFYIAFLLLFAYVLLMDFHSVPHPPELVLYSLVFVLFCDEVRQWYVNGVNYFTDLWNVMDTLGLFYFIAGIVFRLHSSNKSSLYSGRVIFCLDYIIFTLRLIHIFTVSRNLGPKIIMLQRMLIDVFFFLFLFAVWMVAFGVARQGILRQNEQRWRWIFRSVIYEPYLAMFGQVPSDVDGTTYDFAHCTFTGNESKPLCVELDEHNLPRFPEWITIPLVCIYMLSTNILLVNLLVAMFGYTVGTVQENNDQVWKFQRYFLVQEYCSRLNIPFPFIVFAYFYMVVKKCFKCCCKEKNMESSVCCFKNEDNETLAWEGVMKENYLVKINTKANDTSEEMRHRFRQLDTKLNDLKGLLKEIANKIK
T2 sequence (Q9HBA0 whole entry): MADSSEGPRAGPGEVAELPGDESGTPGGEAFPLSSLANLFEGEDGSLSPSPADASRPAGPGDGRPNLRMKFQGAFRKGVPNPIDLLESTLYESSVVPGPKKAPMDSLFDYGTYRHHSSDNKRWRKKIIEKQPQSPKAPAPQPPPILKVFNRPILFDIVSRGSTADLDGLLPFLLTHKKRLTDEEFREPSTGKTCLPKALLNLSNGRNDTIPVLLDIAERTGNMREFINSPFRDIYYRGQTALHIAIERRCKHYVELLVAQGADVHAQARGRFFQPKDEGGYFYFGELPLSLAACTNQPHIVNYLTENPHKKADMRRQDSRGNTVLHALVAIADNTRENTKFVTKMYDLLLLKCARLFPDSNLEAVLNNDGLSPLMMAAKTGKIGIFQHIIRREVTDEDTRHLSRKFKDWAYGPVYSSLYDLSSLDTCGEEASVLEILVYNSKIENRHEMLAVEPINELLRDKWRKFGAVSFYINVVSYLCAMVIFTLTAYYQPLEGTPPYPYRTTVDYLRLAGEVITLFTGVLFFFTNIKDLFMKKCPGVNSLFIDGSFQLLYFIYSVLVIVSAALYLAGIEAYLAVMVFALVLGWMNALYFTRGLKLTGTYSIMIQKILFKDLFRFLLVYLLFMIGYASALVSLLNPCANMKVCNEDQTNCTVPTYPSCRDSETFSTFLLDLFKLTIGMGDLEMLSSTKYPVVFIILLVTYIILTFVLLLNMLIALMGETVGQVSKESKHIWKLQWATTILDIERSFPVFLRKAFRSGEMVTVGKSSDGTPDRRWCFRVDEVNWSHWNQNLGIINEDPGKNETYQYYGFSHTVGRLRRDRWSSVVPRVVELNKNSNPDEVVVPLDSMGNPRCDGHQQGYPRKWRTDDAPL

| Compound | % of Activation Compared to Positive Control against Each Subfamily of TRP Channel TRPV1 (human TRPV1) [%] | % of Activation Compared to Positive Control against Each Subfamily of TRP Channel TRPV4 (human TRPV4) [%] | % of Activation Compared to Positive Control against Each Subfamily of TRP Channel TRPA1 (human TRPA1) [%] | % of Activation Compared to Positive Control against Each Subfamily of TRP Channel TRPM8 (human TRPM8) [%] | AR-Treated Rat Plasma (detection of compound) [1] | also measured |
| --- | --- | --- | --- | --- | --- | --- |
| Neoline | −0.4 | 0.5 | 5 | 5.0 | – | – |
| C=CCc1ccc(OC)cc1 [Estragole] | – | – | – | – | + (The number of plus signs represents the sample number in which the compound was detected among AR-treated rat plasma (n = 1) and MBST-treated rat plasma (n = 3)) | – |
| Oc1ccc(C2OCC3C(c4ccc5c(c4)OCO5)OCC23)cc1O (stereo not drawn) [(7α,7′β,8α,8′α)-3,4-Methylenedioxy-3′,4′-dihydroxy-7,9′:7′,9-diepoxylignane] | – | – | – | – | + (The number of plus signs represents the sample number in which the compound was detected among AR-treated rat plasma (n = 1) and MBST-treated rat plasma (n = 3)) | – |
| O=c1cc(-c2ccc(O)cc2)oc2cc(O)c([C@@H]3O[C@H](CO)[C@@H](O)[C@H](O)[C@H]3O)c(O)c12 [Isovitexin] | – | – | – | – | – | activation at 10 µM (human TRPV1): 0.2%; activation at 10 µM (human TRPV4): 2.3%; activation at 10 µM (human TRPA1): 18%; activation at 10 µM (human TRPM8): 4.3% |
| (1R,2S)-(−)-N-methylephedrine [reference compound] | −0.4 | −0.1 | 3 | 3.6 | – | – |
| Oc1cc(O)c2c(c1)O[C@H](c1ccc(O)c(O)c1)[C@H](O)C2 [Epicatechin] | – | – | – | – | – | activation at 10 µM (human TRPV1): 0%; activation at 10 µM (human TRPV4): 0.6%; activation at 10 µM (human TRPA1): 6%; activation at 10 µM (human TRPM8): 4.2% |
| CC=CC=CCCC=CC=CC(=O)NCC(C)C (single isomer, unassigned) [N-Isobutyl-2,4,8,10-dodecatetraenamide isomer] | – | – | – | – | + (The number of plus signs represents the sample number in which the compound was detected among AR-treated rat plasma (n = 1) and MBST-treated rat plasma (n = 3)) | MBST-Treated Rat Plasma (detection of compound) ([1]; rat plasma 1 h after oral 2 g/kg MBST, n = 3, LC-HRMS): + + + (The number of plus signs represents the sample number in which the compound was detected among AR-treated rat plasma (n = 1) and MBST-treated rat plasma (n = 3)) |
| O=c1cc(-c2ccc(O)cc2)oc2c([C@@H]3O[C@H](CO)[C@@H](O)[C@H](O)[C@H]3O)c(O)c([C@@H]3O[C@H](CO)[C@@H](O)[C@H](O)[C@H]3O)c(O)c12 [Vicenin-2] | 1.8 | 5.0 | 25 | 6.5 | – | – |
| C/C=C/C=C\CC/C=C/C(=O)NCC(C)C [Spilanthol] | – | – | – | – | – | Detection in plasma of rats treated with AR or MBST (non-targeted analysis) ([1]; rat, in vivo, po): not detected |
